These results are taken from patent US9682976B2, “Protein kinase C inhibitors and uses thereof” (Rigel Pharmaceuticals, Inc., priority 2012, dated 2017).

The subject of this assay is PKC mediated IL-2 production. Briefly: IL-2 ELISA, human primary T cell, anti CD3+CD28+. Format: cell-based. Particulars: Homo sapiens, T-cell, 24 h, human primary T cells stimulated with αCD3 and αCD28, 24 hours. In outline:
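IL-2 was quantified by ELISA in 24 h supernatants from primary human T cells given a 1 h compound pre-treatment at 37° C. These cells had been expanded from blood mononuclear cells on αCD3/αCD28 with IL-2, and the IL-2 was removed by washing. Stimulation used plate-bound αCD3 ([…]) plus αCD28 (5 μg/ml); the counter assay used PMA (0.5 ng/ml) with ionomycin (0.1 uM) instead.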
`Cn1nnn(-c2cc(Nc3ncc(F)c(N[C@@H]4C[C@@H]5CCCN5C(C)(C)C4)n3)c(F)cc2CCO)c1=O` [Compound 93, 1-(5-(4-((7R,8aS)-octahydro-5,5-dimethylindolizin-7-ylamino)-5-fluoropyrimidin-2-ylamino)-4-fluoro-2-(2-hydroxyethyl)phenyl)-4-methyl-1H-tetrazol-5(4H)-one] gave an EC50 of 100 to 500 nM.

Compound `CC(O)c1cc(F)c(Nc2ncc(F)c(N[C@@H]3C[C@@H]4CCCN4C(C)(C)C3)n2)cc1-n1nnn(C)c1=O` (some centres unmarked) [Compound 94] came in with an EC50 of 100 to 500 nM.

`CCc1cc(F)c(Nc2ncc(F)c(N[C@@H]3C[C@@H]4CCCN4C(C)(C)C3)n2)cc1-n1nnn(C)c1=O` [Compound 95, 1-(5-(4-((7R,8aS)-octahydro-5,5-dimethylindolizin-7-ylamino)-5-fluoropyrimidin-2-ylamino)-2-ethyl-4-fluorophenyl)-4-methyl-1H-tetrazol-5(4H)-one]: the EC50 was less than 100 nM.

The compound `Cn1nnn(-c2cc(Nc3ncc(F)c(N[C@@H]4C[C@@H]5CCCN5C(C)(C)C4)n3)c(F)cc2C#CCO)c1=O` [Compound 96, 1-(5-(4-((7R,8aS)-octahydro-5,5-dimethylindolizin-7-ylamino)-5-fluoropyrimidin-2-ylamino)-4-fluoro-2-(3-hydroxyprop-1-ynyl)phenyl)-4-methyl-1H-tetrazol-5(4H)-one] displayed an EC50 of less than 100 nM.

Regarding `Cn1nnn(-c2cc(Nc3ncc(F)c(N[C@@H]4C[C@@H]5CCCN5C(C)(C)C4)n3)c(F)cc2CCCO)c1=O` [Compound 97, 1-(5-(4-((7R,8aS)-octahydro-5,5-dimethylindolizin-7-ylamino)-5-fluoropyrimidin-2-ylamino)-4-fluoro-2-(3-hydroxypropyl)phenyl)-4-methyl-1H-tetrazol-5(4H)-one], the EC50 fell in the range of 100 to 500 nM.

The compound `Cn1nnn(-c2cc(Nc3ncc(F)c(N[C@@H]4C[C@@H]5CCCN5C(C)(C)C4)n3)c(F)cc2C#N)c1=O` [Compound 98, 4-(4-((7R,8aS)-octahydro-5,5-dimethylindolizin-7-ylamino)-5-fluoropyrimidin-2-ylamino)-5-fluoro-2-(4,5-dihydro-4-methyl-5-oxotetrazol-1-yl)benzonitrile] registered an EC50 of 100 to 500 nM.

As to `C[C@H](CO)Oc1cc(F)c(Nc2ncc(F)c(N[C@@H]3C[C@@H]4CCCN4C(C)(C)C3)n2)cc1-n1nnn(C)c1=O` [Compound 99], the EC50 was less than 100 nM.

`CC1(C)C[C@H](Nc2nc(Nc3ccc(N4CCC5(CC4)COC5)c(C#N)c3)ncc2F)C[C@@H]2CCCN21` [Compound 100, 5-(4-((7R,8aS)-5,5-dimethyloctahydroindolizin-7-ylamino)-5-fluoropyrimidin-2-ylamino)-2-(2-oxa-7-azaspiro[3.5]nonan-7-yl)benzonitrile] registered an EC50 of 100 to 500 nM.

Turning to `CC1(C)C[C@H](Nc2nc(Nc3ccc(N4CC5(COC5)C4)c(C#N)c3)ncc2F)C[C@@H]2CCCN21` [Compound 101, 5-(4-((7R,8aS)-5,5-dimethyloctahydroindolizin-7-ylamino)-5-fluoropyrimidin-2-ylamino)-2-(2-oxa-6-azaspiro[3.3]heptan-6-yl)benzonitrile], the EC50 is 100 to 500 nM.

`CC1(C)Oc2ccc(Nc3ncc(F)c(N[C@H]4C[C@H]5CCCN5C(C)(C)C4)n3)cc2-n2nnnc21` [Compound 102, N2-(4,4-dimethyl-4H-benzo[b]tetrazolo[1,5-d][1,4]oxazin-8-yl)-N4-((7S,8aR)-5,5-dimethyloctahydroindolizin-7-yl)-5-fluoropyrimidine-2,4-diamine] gave an EC50 of 100 to 500 nM.

As for `CC1(C)C[C@H](Nc2nc(Nc3ccc(N4CCN(S(C)(=O)=O)CC4)c(C#N)c3)ncc2F)C[C@@H]2CCCN21` [Compound 103, 5-((4-(((7R,8aS)-5,5-Dimethyloctahydroindolizin-7-yl)amino)-5-fluoropyrimidin-2-yl)amino)-2-(4-(methylsulfonyl)piperazin-1-yl)benzonitrile], the EC50 was in the range of 100 to 500 nM.

The compound `CC1(C)C[C@H](Nc2nc(Nc3ccc4c(c3)OCC(=O)N4CC3CC3)ncc2F)C[C@@H]2CCCN21` [Compound 104, 4-(cyclopropylmethyl)-7-((4-(((7R,8aS)-5,5-dimethyloctahydroindolizin-7-yl)amino)-5-fluoropyrimidin-2-yl)amino)-2H-benzo[b][1,4]oxazin-3(4H)-one] had an EC50 of 100 to 500 nM.

As for `CC1(C)Oc2cc(Nc3ncc(F)c(N[C@@H]4C[C@@H]5CCCN5C(C)(C)C4)n3)ccc2N(CC2CC2)C1=O` [Compound 105, 4-(cyclopropylmethyl)-7-((4-(((7R,8aS)-5,5-dimethyloctahydroindolizin-7-yl)amino)-5-fluoropyrimidin-2-yl)amino)-2,2-dimethyl-2H-benzo[b][1,4]oxazin-3(4H)-one], the EC50 was 500 to 1000 nM.

In the case of `CC1(C)C[C@H](Nc2nc(Nc3ccc(N4CCOCC4)c(C#N)c3)ncc2F)C[C@@H]2CCCN21` [Compound 106, 5-((4-(((7R,8aS)-5,5-dimethyloctahydroindolizin-7-yl)amino)-5-fluoropyrimidin-2-yl)amino)-2-morpholinobenzonitrile], the EC50 was in the range of 100 to 500 nM.

`CC1(C)C[C@H](Nc2nc(Nc3ccc(N4CCC(O)CC4)c(C#N)c3)ncc2F)C[C@@H]2CCCN21` [Compound 107, 5-((4-(((7R,8aS)-5,5-dimethyloctahydroindolizin-7-yl)amino)-5-fluoropyrimidin-2-yl)amino)-2-(4-hydroxypiperidin-1-yl)benzonitrile]: the EC50 fell in the range of 100 to 500 nM.

As to `CN1CCN(c2ccc(Nc3ncc(F)c(N[C@@H]4C[C@@H]5CCCN5C(C)(C)C4)n3)cc2C#N)CC1` [Compound 108, 5-((4-(((7R,8aS)-5,5-dimethyloctahydroindolizin-7-yl)amino)-5-fluoropyrimidin-2-yl)amino)-2-(4-methylpiperazin-1-yl)benzonitrile], the EC50 was less than 100 nM.

Consider `Cn1nnn(-c2cc(Nc3ncc(F)c(N[C@@H]4C[C@@H]5CCCN5C(C)(C)C4)n3)c(F)cc2O[C@@H]2CCOC2)c1=O` [Compound 109, 1-(5-((4-(((7R,8aS)-5,5-dimethyloctahydroindolizin-7-yl)amino)-5-fluoropyrimidin-2-yl)amino)-4-fluoro-2-(((R)-tetrahydrofuran-3-yl)oxy)phenyl)-4-methyl-1,4-dihydro-5H-tetrazol-5-one], for which the EC50 fell in the range of 100 to 500 nM.

Regarding `Cn1nnn(-c2cc(Nc3ncc(F)c(N[C@@H]4C[C@@H]5CCCN5C(C)(C)C4)n3)c(F)cc2O[C@H]2CCOC2)c1=O` [Compound 110, 1-(5-((4-(((7R,8aS)-5,5-dimethyloctahydroindolizin-7-yl)amino)-5-fluoropyrimidin-2-yl)amino)-4-fluoro-2-(((S)-tetrahydrofuran-3-yl)oxy)phenyl)-4-methyl-1,4-dihydro-5H-tetrazol-5-one], the EC50 lay within 100 to 500 nM.

`Cn1nnn(-c2cc(Nc3ncc(C#N)c(N[C@@H]4C[C@@H]5CCCN5C(C)(C)C4)n3)c(F)cc2OC2CCOC2)c1=O` (some centres unmarked) [Compound 111] gave an EC50 of 100 to 500 nM.

As to `Cn1nnn(-c2cc(Nc3ncc(C#N)c(N[C@@H]4C[C@@H]5CCCN5C(C)(C)C4)n3)c(F)cc2O[C@H]2CCOC2)c1=O` [Compound 112], the EC50 fell in the range of 100 to 500 nM.

On to `Cn1nnn(-c2cc(Nc3ncc(C#N)c(N[C@@H]4C[C@@H]5CCCN5C(C)(C)C4)n3)c(F)cc2OC2COC2)c1=O` [Compound 113, 4-(((7R,8aS)-5,5-dimethyloctahydroindolizin-7-yl)amino)-2-((2-fluoro-5-(4-methyl-5-oxo-4,5-dihydro-1H-tetrazol-1-yl)-4-(oxetan-3-yloxy)phenyl)amino)pyrimidine-5-carbonitrile], for which the EC50 lay in the range of 100 to 500 nM.

Turning to `Cn1nnn(-c2cc(Nc3ncc(F)c(N[C@@H]4C[C@@H]5CCCN5C(C)(C)C4)n3)c(F)cc2OC2CCOCC2)c1=O` [Compound 114, 1-(5-((4-(((7R,8aS)-5,5-dimethyloctahydroindolizin-7-yl)amino)-5-fluoropyrimidin-2-yl)amino)-4-fluoro-2-((tetrahydro-2H-pyran-4-yl)oxy)phenyl)-4-methyl-1,4-dihydro-5H-tetrazol-5-one], the EC50 lay in the range of 500 to 1000 nM.

As to `Cn1nnn(-c2cc(Nc3ncc(C#N)c(N[C@@H]4C[C@@H]5CCCN5C(C)(C)C4)n3)c(F)cc2OC2CCOCC2)c1=O` [Compound 115, 4-(((7R,8aS)-5,5-dimethyloctahydroindolizin-7-yl)amino)-2-((2-fluoro-5-(4-methyl-5-oxo-4,5-dihydro-1H-tetrazol-1-yl)-4-((tetrahydro-2H-pyran-4-yl)oxy)phenyl)amino)pyrimidine-5-carbonitrile], the EC50 is 500 to 1000 nM.

The compound `CC1(C)C[C@H](Nc2nc(Nc3ccc(N4CCN(C5COC5)CC4)c(C#N)c3)ncc2F)C[C@@H]2CCCN21` [Compound 116] displayed an EC50 of 100 to 500 nM.

`Cn1nnn(-c2cc(Nc3ncc(F)c(N[C@@H]4C[C@@H]5CCCN5C(C)(C)C4)n3)ccc2N2CCN(C3COC3)CC2)c1=O` [Compound 117, 1-(5-((4-(((7R,8aS)-5,5-dimethyloctahydroindolizin-7-yl)amino)-5-fluoropyrimidin-2-yl)amino)-2-(4-(oxetan-3-yl)piperazin-1-yl)phenyl)-4-methyl-1,4-dihydro-5H-tetrazol-5-one] showed an EC50 of 1000 to 10000 nM.

Consider `CC1(C)C[C@H](Nc2nc(Nc3ccc(OC4CCNCC4)c(C(F)(F)F)c3)ncc2F)C[C@@H]2CCCN21` [Compound 118, N^4-((7R,8aS)-5,5-dimethyloctahydroindolizin-7-yl)-5-fluoro-N^2-(4-(piperidin-4-yloxy)-3-(trifluoromethyl)phenyl)pyrimidine-2,4-diamine], for which the concentration for a half-maximal effect (EC50) is 100 to 500 nM.

As for `CC1(C)C[C@H](Nc2nc(Nc3ccc(O[C@@H]4CCNC[C@H]4F)c(C(F)(F)F)c3)ncc2F)C[C@@H]2CCCN21` [Compound 119], the EC50 is less than 100 nM.

As to `CC1(C)C[C@H](Nc2nc(Nc3ccc(OC4CCN(C5COC5)CC4)c(C(F)(F)F)c3)ncc2F)C[C@@H]2CCCN21` [Compound 120], the EC50 lay within 100 to 500 nM.

Turning to `CC1(C)C[C@H](Nc2nc(Nc3ccc(O[C@H]4CCNC[C@@H]4F)c(C(F)(F)F)c3)ncc2F)C[C@@H]2CCCN21` [Compound 121], the EC50 was less than 100 nM.

For orientation: EC50 means the concentration that produces a half-maximal response. Higher therefore signals a need for much substance.
